Measured values reported in PMC8844075 (Nature Communications, 2022).
Read-outs that look alike come from different tables or passages of the source.

Legend:
[1] = tested on: Gi1 heterotrimer with NPY-bound Y1R; test: GTP turnover assay; assay type: biochemical, human
Experimental: GTP turnover assay was performed using GTPase-Glo assay kit (Promega)[22]. […] NPY-bound Y1R (4 μM) was mixed with 1 μM Gi1 heterotrimer (containing Gαi produced from E. coli or Sf9 cells) in an assay buffer consisting of 20 mM HEPES pH 8.0, 150 mM NaCl, 0.03% DDM, 0.003% CHS, 100 μM TCEP, 5 μM GDP, and 2.5 μM GTP. After incubation for 3 h, reconstituted GTPase-Glo reagent was added to the sample and incubated for 30 min at room temperature. Then, detection reagent was mixed and incubated for 10 min at room temperature. Luminescence was measured using a FlexStation 3 multi-mode microplate reader (Molecular Devices) and data were analyzed by GraphPad Prism 9.2.0.

wild-type Y1R / Gi1 = test: BRET Gi1 recruitment assay, wild-type Y1R; assay type: cell-based, human; details: result in words
Experimental: Forty-eight hours of post-transfection, cells were detached with PBS supplemented with 20 mM EDTA and evenly spread into white 96-well microplates (SPL). […] All BRET data were collected using a Mithras LB940 instrument (Berthold), and graphs were plotted using GraphPad Prism 9.2.0.
each sample represent the mean and S.E.M. (standard error of mean) of n=six independent experiments, respectively. Each circle represents an individual data point from the experiment.

Y1R = details: cited from earlier work
[2] = alanine mutants of NPY, ref [10],[26]

Gi1 (Sf9): purified Gi1 heterotrimer containing Gαi1 produced from Sf9 insect cells
reduced luminescence signal (GTP hydrolytic activity) ([1]; GTPase-Glo, 1 μM Gi1, 4 μM NPY-bound Y1R, 3 h, three independent experiments): 95.1%

Gi (sf9)
GTP turnover ([1]; 1st, Buffer 7216.3): 2592.3
GTP turnover ([1]; 2nd, Buffer 7401.3): 2856.7
GTP turnover ([1]; 3rd, Buffer 7365.4): 2743.4

NPY-COOH: carboxyl-NPY (NPY-COOH), non-amidated NPY
Gi1 recruitment (wild-type Y1R / Gi1): does not induce recruitment of Gi1

R33A: R33A mutation of NPY
Y1R binding (Y1R; [2]): most severe defects in Y1R binding

R35A: R35A mutation of NPY
Y1R binding (Y1R; [2]): most severe defects in Y1R binding

Y1R
GTP turnover ([1]; 1st, Buffer 7216.3): 7542.9
GTP turnover ([1]; 2nd, Buffer 7401.3): 7352.2
GTP turnover ([1]; 3rd, Buffer 7365.4): 7960.2

Y36A: Y36A mutation of NPY
Y1R binding (Y1R; [2]): loss of binding to Y1R

Y36F: Y36F mutation of NPY
Y1R binding (Y1R; NPY mutant, ref [26]): relatively mild effect on Y1R binding
